# Assay results published in patent publication US8598086B2, “3-halo-(arly)-4-iminotetrahydropicolinates and their use as herbicides” (Dow AgroSciences, LLC., priority 2009, dated 2013).
# How the values were obtained:
# Format in all cases: in vivo
# [1] = tested on: giant foxtail (Setaria faberi); assay: Post-emergent Test I; conditions: 10 d after treatment, scale 0 (no activity) to 100 (complete plant death)
# Description: (§1) Post-emergent Test I: Weed seeds were obtained from commercial suppliers and planted into 5″-round pots containing soilless media mix (Metro-Mix 360®, Sun Gro Horticulture Canada CM Ltd. Vancouver, British Columbia) 8-12 d prior to application and cultured in a greenhouse equipped with supplemental light sources to provide a 16 h photoperiod at 24-29° C. All pots were surface irrigated. Compounds were dissolved in a 97:3 v/v (volume per volume) mixture of acetone and dimethyl sulfoxide (DMSO) and diluted to the appropriate concentration in a final application solution containing water, acetone, isopropyl alcohol, DMSO and Agri-dex (crop oil concentrate) in a 59:23:15:1.0:1.5 v/v ratio and 0.02% w/v (weight per volume) of Triton X-155 to obtain the spray solution containing the highest application rate. The high application rate was serial diluted with the above application solution to provide delivery of the compound at rates 1/2×, 1/4× and 1/8× of the highest rate (equivalent to 4.0, 2.0, 1.0, and 0.5 kg/ha, respectively). Formulated compound (2.7 mL) was applied using a DeVilbiss® compressed air sprayer at 2-4 pounds per square inch (psi) […]. Following treatment, pots were allowed to dry before being returned to the greenhouse for the duration of the experiment and subirrigated as needed. All pots were fertilized one time per week by subirrigating with Peters Peat-Lite Special® fertilizer (20-10-20). Phytotoxicity ratings were obtained 10 d after treatment. All evaluations were made on a scale of 0 to 100 where 0 represents no activity and 100 represents complete plant death.
# [2] = tested on: ivyleaf morningglory (Ipomoea hederacea); assay: Post-emergent Test I; conditions: 10 d after treatment, scale 0 (no activity) to 100 (complete plant death)
# Description: as §1
# [3] = tested on: pigweed (Amaranthus retroflexus); assay: Post-emergent Test I; conditions: 10 d after treatment, scale 0 (no activity) to 100 (complete plant death)
# Description: as §1
# [4] = tested on: sunflower (Helianthus annuus); assay: Post-emergent Test I; conditions: 10 d after treatment, scale 0 (no activity) to 100 (complete plant death)
# Description: as §1
# wild oat (Avena fatua) [5] = assay: Post-emergent Test I; conditions: 10 d after treatment, scale 0 (no activity) to 100 (complete plant death)
# Description: as §1
# [6] = tested on: giant foxtail (Setaria faberi); assay: Pre-emergent Test I; conditions: 14 d after treatment, scale 0 (no herbicidal effect) to 100 (plant death or lack of emergence)
# Description: (§2) Pre-emergent Test I: Weed seeds were obtained from commercial suppliers and planted into round plastic pots (5-inch diameter) containing silt loam soil (23% sand, 52% silt, 29% clay, 2.9% organic matter, CEC 16.6, pH 7.2). After planting, all pots were subirrigated 16 h prior to compound application. Compounds were dissolved in a 97:3 v/v mixture of acetone and DMSO and diluted to the appropriate concentration in a final application solution containing water, acetone, isopropyl alcohol, DMSO and Agri-dex (crop oil concentrate) in a 59:23:15:1.0:1.5 v/v ratio and 0.02% w/v of Triton X-155 to obtain the spray solution containing the highest application rate. The high application rate was serial diluted with the above application solution to provide delivery of the compound at rates 1/2×, 1/4× and 1/8× of the highest rate (equivalent to 4.0, 2.0, 1.0, and 0.5 kg/ha, respectively). Formulated compound (2.7 mL) was pipetted evenly over the soil surface followed by incorporation with water (15 mL). Following treatment, pots were returned to the greenhouse for the duration of the experiment. The greenhouse was programmed for an approximate 15 h photoperiod which was maintained at about 23-29° C. during the day and 22-28° C. during the night. Nutrients and water were added on a regular basis through surface irrigation and supplemental lighting was provided with overhead metal halide 1000-Watt lamps as necessary. Herbicidal effect ratings were obtained 14 d after treatment. All evaluations were made relative to appropriate controls on a scale of 0 to 100 where 0 represents no herbicidal effect and 100 represents plant death or lack of emergence from the soil.
# [7] = tested on: ivyleaf morningglory (Ipomoea hederacea); assay: Pre-emergent Test I; conditions: 14 d after treatment, scale 0 (no herbicidal effect) to 100 (plant death or lack of emergence)
# Description: as §2
# [8] = tested on: pigweed (Amaranthus retroflexus); assay: Pre-emergent Test I; conditions: 14 d after treatment, scale 0 (no herbicidal effect) to 100 (plant death or lack of emergence)
# Description: as §2
# [9] = tested on: sunflower (Helianthus annuus); assay: Pre-emergent Test I; conditions: 14 d after treatment, scale 0 (no herbicidal effect) to 100 (plant death or lack of emergence)
# Description: as §2
# wild oat (Avena fatua) [10] = assay: Pre-emergent Test I; conditions: 14 d after treatment, scale 0 (no herbicidal effect) to 100 (plant death or lack of emergence)
# Description: as §2
# [11] = tested on: barnyardgrass (Echinochloa crus-galli); assay: Post-emergent Test II; conditions: after 14 d, 0 = no injury, 100 = complete kill
# Description: (§3) Post-emergent Test II: Seeds or nutlets of the desired test plant species were planted in Sun Gro Metro-Mix® 360 planting mixture, which typically has a pH of 6.0 to 6.8 and an organic matter content of about 30 percent, in plastic pots with a surface area of 64 square centimeters. When required to ensure good germination and healthy plants, a fungicide treatment and/or other chemical or physical treatment was applied. The plants were grown for 7-21 d in a greenhouse with an approximate 15 h photoperiod which was maintained at about 23-29° C. during the day and 22-28° C. during the night. Nutrients and water were added on a regular basis and supplemental lighting was provided with overhead metal halide 1000-Watt lamps as necessary. The plants were employed for testing when they reached the first or second true leaf stage.
# (§4) A weighed amount, determined by the highest rate to be tested, of each test compound was placed in a 25 mL glass vial and was dissolved in 4 mL of a 97:3 v/v mixture of acetone and DMSO to obtain concentrated stock solutions. […] The concentrated stock solutions obtained were diluted with 20 mL of an aqueous mixture containing acetone, water, isopropyl alcohol, DMSO, Atplus 411F crop oil concentrate, and Triton® X-155 surfactant in a 48.5:39:10:1.5:1.0:0.02 v/v ratio to obtain spray solutions containing the highest application rates. Additional application rates were obtained by serial dilution of 12 mL of the high rate solution into a solution containing 2 mL of 97:3 v/v mixture of acetone and DMSO and 10 mL of an aqueous mixture containing acetone, water, isopropyl alcohol, DMSO, Atplus 411F crop oil concentrate, and Triton X-155 surfactant in a 48.5:39:10:1.5:1.0:0.02 v/v ratio to obtain 1/2×, 1/4×, 1/8× and 1/16× rates of the high rate. Compound requirements are based upon a 12 mL application volume at a rate of 187 liters per hectare (L/ha). Formulated compounds were applied to the plant material with an overhead Mandel track sprayer equipped with 8002E nozzles calibrated to deliver 187 L/ha over an application area of 0.503 square meters at a spray height of 18 inches (43 cm) above the average plant canopy height. Control plants were sprayed in the same manner with the solvent blank.
# (§5) The treated plants and control plants were placed in a greenhouse as described above and watered by subirrigation to prevent wash-off of the test compounds. After 14 d, the condition of the test plants as compared with that of the untreated plants was determined visually and scored on a scale of 0 to 100 percent where 0 corresponds to no injury and 100 corresponds to complete kill.
# [12] = tested on: bindweed (Polygonum convolvulus); assay: Post-emergent Test II; conditions: after 14 d, 0 = no injury, 100 = complete kill
# Description: as §3, §4, §5
# [13] = tested on: lambsquarters (Chenopodium album); assay: Post-emergent Test II; conditions: after 14 d, 0 = no injury, 100 = complete kill
# Description: as §3, §4, §5
# rice (Oryza sativa) = assay: Post-emergent Test II; conditions: after 14 d, 0 = no injury, 100 = complete kill
# Description: as §3, §4, §5
# [14] = tested on: velvetleaf (Abutilon theophrasti); assay: Post-emergent Test II; conditions: after 14 d, 0 = no injury, 100 = complete kill
# Description: as §3, §4, §5
compound,measurement,setting,value
"CCOC(=O)C1=C(Cl)/C(=N/OS(C)(=O)=O)CC(c2ccc(Cl)c(OC)c2F)N1 (stereo not drawn) [Compound 30, 3-Chloro-6-(4-chloro-2-fluoro-3-methoxyphenyl)-4-[(E)-methanesulfonyloximino]-1,4,5,6-tetrahydropyridine-2-carboxylic acid ethyl ester]",Phytotoxicity rating SETFA,[1]; 3400 g ai/ha,85
same,Phytotoxicity rating IPOHE,[2]; 3400 g ai/ha,95
same,Phytotoxicity rating AMARE,[3]; 3400 g ai/ha,100
same,Phytotoxicity rating HELAN,[4]; 3400 g ai/ha,90
same,Phytotoxicity rating AVEFA,wild oat (Avena fatua) [5]; 3400 g ai/ha,30
same,Herbicidal effect rating SETFA,[6]; 3400 g ai/ha,100
same,Herbicidal effect rating IPOHE,[7]; 3400 g ai/ha,100
same,Herbicidal effect rating AMARE,[8]; 3400 g ai/ha,100
same,Herbicidal effect rating HELAN,[9]; 3400 g ai/ha,100
same,Herbicidal effect rating AVEFA,wild oat (Avena fatua) [10]; 3400 g ai/ha,95
"CCOC(=O)C1=C(Cl)/C(=N/OS(C)(=O)=O)CC(c2ccc(Cl)cc2F)N1 (stereo not drawn) [Compound 26, 3-chloro-6-(4-chloro-2-fluorophenyl)-4-[(E)-methanesulfonyloximino]-1,4,5,6-tetrahydropyridine-2-carboxylic acid ethyl ester]",Phytotoxicity rating SETFA,[1]; 3760 g ai/ha,100
same,Phytotoxicity rating IPOHE,[2]; 3760 g ai/ha,100
same,Phytotoxicity rating HELAN,[4]; 3760 g ai/ha,100
same,Phytotoxicity rating AVEFA,wild oat (Avena fatua) [5]; 3760 g ai/ha,95
same,Herbicidal effect rating SETFA,[6]; 3760 g ai/ha,70
same,Herbicidal effect rating IPOHE,[7]; 3760 g ai/ha,100
same,Herbicidal effect rating AMARE,[8]; 3760 g ai/ha,100
same,Herbicidal effect rating HELAN,[9]; 3760 g ai/ha,70
same,Herbicidal effect rating AVEFA,wild oat (Avena fatua) [10]; 3760 g ai/ha,10
"COC(=O)C1=C(Cl)/C(=N/OC(C)=O)CC(c2ccc(Cl)c(OC)c2F)N1 (stereo not drawn) [Compound 35, 3-chloro-6-(4-chloro-2-fluoro-3-methoxyphenyl)-4-[(E)-acetoxyoximino]-3-chloro-1,4,5,6-tetrahydropyridine-2-carboxylic acid methyl ester]",Visual injury score ECHCG,[11]; 70 g ai/ha,90%
same,Visual injury score POLCO,[12]; 70 g ai/ha,100%
same,Visual injury score CHEAL,[13]; 70 g ai/ha,100%
same,Visual injury score ORYSA,rice (Oryza sativa); 70 g ai/ha,0%
same,Visual injury score ABUTH,[14]; 70 g ai/ha,100%
"COC(=O)C1=C(Cl)/C(=N/OS(=O)(=O)c2ccc(C)cc2)CC(c2ccc(Cl)c(OC)c2F)N1 (stereo not drawn) [Compound 31, 3-Chloro-6-(4-chloro-2-fluoro-3-methoxyphenyl)-4-[(E)-p-toluenesulfonyloximino]-1,4,5,6-tetrahydropyridine-2-carboxylic acid methyl ester]",Phytotoxicity rating SETFA,[1]; 4000 g ai/ha,80
same,Phytotoxicity rating IPOHE,[2]; 4000 g ai/ha,90
same,Phytotoxicity rating HELAN,[4]; 4000 g ai/ha,90
same,Phytotoxicity rating AVEFA,wild oat (Avena fatua) [5]; 4000 g ai/ha,40
same,Herbicidal effect rating SETFA,[6]; 4000 g ai/ha,10
same,Herbicidal effect rating IPOHE,[7]; 4000 g ai/ha,100
same,Herbicidal effect rating AMARE,[8]; 4000 g ai/ha,100
same,Herbicidal effect rating HELAN,[9]; 4000 g ai/ha,100
same,Herbicidal effect rating AVEFA,wild oat (Avena fatua) [10]; 4000 g ai/ha,10
"COC(=O)C1=C(Cl)/C(=N/OS(C)(=O)=O)CC(c2ccc(Cl)c(OC)c2F)N1 (stereo not drawn) [Compound 29, 3-Chloro-6-(4-chloro-2-fluoro-3-methoxyphenyl)-4-[(E)-methanesulfonyloximino]-1,4,5,6-tetrahydropyridine-2-carboxylic acid methyl ester]",Phytotoxicity rating SETFA,[1]; 4000 g ai/ha,90
same,Phytotoxicity rating IPOHE,[2]; 4000 g ai/ha,95
same,Phytotoxicity rating AMARE,[3]; 4000 g ai/ha,100
same,Phytotoxicity rating HELAN,[4]; 4000 g ai/ha,90
same,Phytotoxicity rating AVEFA,wild oat (Avena fatua) [5]; 4000 g ai/ha,30
same,Herbicidal effect rating SETFA,[6]; 4000 g ai/ha,60
same,Herbicidal effect rating IPOHE,[7]; 4000 g ai/ha,95
same,Herbicidal effect rating AMARE,[8]; 4000 g ai/ha,100
same,Herbicidal effect rating HELAN,[9]; 4000 g ai/ha,80
same,Herbicidal effect rating AVEFA,wild oat (Avena fatua) [10]; 4000 g ai/ha,30
same,Visual injury score ECHCG,[11]; 140 g ai/ha,100%
same,Visual injury score POLCO,[12]; 140 g ai/ha,90%
same,Visual injury score CHEAL,[13]; 140 g ai/ha,100%
same,Visual injury score ORYSA,rice (Oryza sativa); 140 g ai/ha,0%
same,Visual injury score ABUTH,[14]; 140 g ai/ha,100%
"COC(=O)C1=C(Br)/C(=N/OS(C)(=O)=O)CC(c2ccc(Cl)c(OC)c2F)N1 (stereo not drawn) [Compound 32, 3-bromo-6-(4-chloro-2-fluoro-3-methoxyphenyl)-4-[(E)-methanesulfonyloximino]-1,4,5,6-tetrahydropyridine-2-carboxylic acid methyl ester]",Visual injury score ECHCG,[11]; 140 g ai/ha,90%
same,Visual injury score POLCO,[12]; 140 g ai/ha,90%
same,Visual injury score CHEAL,[13]; 140 g ai/ha,100%
same,Visual injury score ORYSA,rice (Oryza sativa); 140 g ai/ha,15%
same,Visual injury score ABUTH,[14]; 140 g ai/ha,100%
"COC(=O)C1=C(Cl)/C(=N/OS(C)(=O)=O)CC(c2ccc(Cl)cc2)N1 (stereo not drawn) [Compound 27, 3-Chloro-6-(4-chlorophenyl)-4-[(E)-methanesulfonyloximino]-1,4,5,6-tetrahydropyridine-2-carboxylic acid methyl ester]",Phytotoxicity rating SETFA,[1]; 3960 g ai/ha,90
same,Phytotoxicity rating IPOHE,[2]; 3960 g ai/ha,85
same,Phytotoxicity rating AMARE,[3]; 3960 g ai/ha,100
same,Phytotoxicity rating HELAN,[4]; 3960 g ai/ha,95
same,Phytotoxicity rating AVEFA,wild oat (Avena fatua) [5]; 3960 g ai/ha,75
same,Herbicidal effect rating SETFA,[6]; 3960 g ai/ha,100
same,Herbicidal effect rating IPOHE,[7]; 3960 g ai/ha,100
same,Herbicidal effect rating AMARE,[8]; 3960 g ai/ha,100
same,Herbicidal effect rating HELAN,[9]; 3960 g ai/ha,100
same,Herbicidal effect rating AVEFA,wild oat (Avena fatua) [10]; 3960 g ai/ha,20
